We go through three molecules from EPA's ToxValDB 9.5 (doi:10.2903/j.efsa.2017.4989).

The subject of one data set is Tagia sp. To be noted: chronic/long-term; growth.
The next data set has as its system Folsomia candida. As to conditions: chronic/long-term; mortality.
A further data set has as its system Oncorhynchus mykiss. To be noted: for LC50: acute, duration: 96 hours, mortality.
The test system of a further data set is Hypoaspis aculeifer. To be noted: chronic/long-term; mortality.
For the next data set, the system named is Apis mellifera. As to conditions: acute, duration: 48 hours, mortality.
A further data set deals with Daphnia magna. To be noted: chronic/long-term; duration: 21 days; reproduction.
A further data set relates to Anas platyrhynchos. As to conditions: acute; oral; unspecified; mortality.
Another data set relates to Oryctolagus sp. To be noted: developmental; development.

Values after ≈ are worked out from the molar mass of the structure shown.

In general, NOAEL refers to the highest tested level that showed no adverse finding. Take `CO/N=C(/C(=O)O)c1ccccc1CO/N=C(/C(=O)O)c1cccc(C(F)(F)F)c1`: in the data set on Rattus norvegicus (acute, oral, mortality), the LD50 is greater than 2000 mg/kg-day. The molecule further had an NOAEL in the data set on Rattus norvegicus (short-term, duration: 28 days) greater than 1000 mg/kg-day. The NOEC with Tagia sp. and with Folsomia candida was 100 mg/kg each time. The molecule also registered an LC50 in the data set on Oncorhynchus mykiss greater than 100 µg/mL.

For `CO/N=C(/C(=O)O)c1ccccc1CO/N=C(\C(=O)O)c1cccc(C(F)(F)F)c1`, the LD50 in the data set on Rattus norvegicus (acute, oral, mortality) is greater than 2000 mg/kg-day. In addition, the no-observed-adverse-effect level (NOAEL) in the data set on Rattus norvegicus (short-term, duration: 28 days, clinical chemistry) was 150 mg/kg-day. Besides, the values for the NOEC in the data set on Tagia sp., in the data set with Hypoaspis aculeifer and in the data set with Folsomia candida were 100 mg/kg, 100 mg/kg and 10 mg/kg, respectively. The LC50 in the data set with Oncorhynchus mykiss is greater than 100 µg/mL.

As to `CO/N=C(/C(=O)OC)c1ccccc1CO/N=C(\C)c1cccc(C(F)(F)F)c1` [Trifloxystrobin], the LC50 was greater than 5000 mg/kg-day in the data set with Rattus norvegicus (acute, oral, mortality) and 0.015 µg/mL (≈ 0.0367 µM) in the data set on Oncorhynchus mykiss. The NOAEL in the data set on Rattus norvegicus (chronic, body weight) worked out at 10 mg/kg-day; with Rattus norvegicus (reproduction developmental, body weight), 10 mg/kg-day; in the data set on Oryctolagus sp. it was 50 mg/kg-day. Further, the LD50 in the data set with Apis mellifera (dermal) was greater than 100 µg/piece; with Apis mellifera (oral, unspecified) it was greater than 110 µg/piece; in the data set on Anas platyrhynchos it was greater than 2250 mg/kg-day; in the data set with Colinus virginianus (acute, oral, mortality) it was greater than 2000 mg/kg-day. Also, the NOEC came out at 3.5 mg/kg in the data set on Tagia sp.; 0.00276 mg/L in the data set with Daphnia magna; 249 mg/kg with Hypoaspis aculeifer; 249 mg/kg in the data set with Folsomia candida; 0.0043 mg/L in the data set on Oncorhynchus mykiss (chronic/long-term, duration: 95 days, other). This molecule also gave an NOEL in the data set on Colinus virginianus (chronic) of 31 mg/kg-day.
